System: B16-F1 mouse melanoma cell line
Assay: B16 melanin synthesis inhibition assay
Type: cell-based
Conditions: B16-F1 cells, OD 410 nm
Protocol: In this example, a commercially available B16-F1 mouse melanoma cell line from American Tissue Culture Collection, Virginia, USA was employed in a conventional melanin synthesis inhibition assay. The cell culture medium used in the assay is 500 mL of Dulbecco's Modified Eagle's Medium (DMEM), 50 mL Fetal Bovine Serum (FBS), and 5 mL of penicillin-streptomycin liquid. B16-F1 cells that are cultured in this medium and grown to greater than 90% confluency will synthesize melanin. While not intending to be bound by any theory, it is hypothesized that the melanin synthesis is stimulated by the culture medium and/or stress induced by growth to a high confluency. […] Equipment used in the assay include a CO2 incubator, such as a Forma Series Model 3110 by Therma Scientific, Massachusetts, USA; a hemocytometer, such as a Bright Line model by Hauser Scientific, Pennsylvania, USA; and a UV-Visible Spectrum Plate Reader, such as a SpectraMax250 from Molecular Devices, California, USA. […] Day 3: The cells from the T-150 flask are trypsinized, and the concentration of cells is determined using the hemacytometer. […] Read the 96 well plate using the UV-Vis Plate Reader at 410 nm to optically measure the amount of melanin produced between wells that are treated with the fava bean extract and control wells that are not. […] The concentration of test agent needed to provide the IC 50 is recorded. […]

SMILES: Oc1ccc(OC2CCCCO2)cc1 (centres unmarked) [Deoxyarbutin]
- Concentration Needed for IC 50: 0.008 v/v

SMILES: O=c1cc(CO)occ1O [Kojic Acid]
- Concentration Needed for IC 50: 0.01 v/v
